ChEMBL document CHEMBL5647687, “Beta-adrenoceptor control of peroxidase synthesis in nasal glands” (Ann Otol Rhinol Laryngol, 1990)
Active and inactive are the calls of the source.

How the values were obtained:
Assay type in all cases: functional, organism-based
Felis catus [1] = assay: Effect on activity of peroxidase in cat rough endoplasmic reticulum at 7.3 mg/kg, iv administered as single dose measured after 9 hrs
Felis catus [2] = assay: Effect on activity of peroxidase in cat in rough golgi complex at 7.3 mg/kg, iv administered as single dose measured after 9 hrs; conditions: Golgi body
Felis catus [3] = assay: Decrease in Peroxidase activity in rough endoplasmic reticulum of cat at 8 mg/kg, iv dosed over 7 hours
Felis catus [4] = assay: Effect on activity of peroxidase in cat rough endoplasmic reticulum at 7.3 mg/kg, iv administered as single dose measured after 5 hrs
Felis catus [5] = assay: Effect on localization of peroxidase in secretory granules of cat at 7.3 mg/kg, iv administered as single dose measured after 30 mins by electron microscopy
Felis catus [6] = assay: Increase in electron-lucent secretory granules in cat at 7.3 mg/kg, iv administered as single dose measured after 5 hrs by electron microscopy
Felis catus [7] = assay: Reduction in peroxidase-positive secretory granules in cat at 7.3 mg/kg, iv administered as single dose measured after 5 hrs by electron microscopy
Felis catus [8] = assay: Decrease in Peroxidase activity in acinar cells of the nasal glands of cat at 8 mg/kg, iv dosed over 7 hours
Felis catus [9] = assay: Effect on activity of peroxidase in cat acinar cells at 7.3 mg/kg, iv administered as single dose measured after 30 mins
Felis catus [10] = assay: Increase in secretory granules without peroxidase activity in cat at 7.3 mg/kg, iv administered as single dose measured after 9 hrs by electron microscopy
Felis catus [11] = assay: Effect on localization of peroxidase in rough golgi complex of cat at 7.3 mg/kg, iv administered as single dose measured after 30 mins by electron microscopy; conditions: Golgi body
Felis catus [12] = assay: Effect on activity of peroxidase in cat in rough golgi complex at 7.3 mg/kg, iv administered as single dose measured after 5 hrs; conditions: Golgi body
Felis catus [13] = assay: Effect on localization of peroxidase in rough endoplasmic reticulum of cat at 7.3 mg/kg, iv administered as single dose measured after 30 mins by electron microscopy
Felis catus [14] = assay: Effect on peroxidase reaction product in r-ER, Golgi complex, and secretory granules in acinar cells of cat at 0.3 mg/kg, iv dosed 10 mins before dosing of 7.3 mg/kg, iv propranolol and measured after 60 mins post ligand dose
Felis catus [15] = assay: Effect on activity of peroxidase in acinar cells of cat at 0.3 mg/kg, iv dosed 10 mins before dosing of 7.3 mg/kg, iv propranolol and measured after 20 mins post ligand dose
Felis catus [16] = assay: Effect on activity of peroxidase in acinar cells of cat at 0.3 mg/kg, iv dosed 10 mins before dosing of 7.3 mg/kg, iv propranolol and measured after 60 mins post ligand dose
Felis catus [17] = assay: Effect on distribution of peroxidase in acinar cells of cat at 0.3 mg/kg, iv dosed 10 mins before dosing of 7.3 mg/kg, iv propranolol and measured after 60 mins post ligand dose by electron microscopy
Felis catus [18] = assay: Effect on distribution of peroxidase in acinar cells of cat at 0.3 mg/kg, iv dosed 10 mins before dosing of 7.3 mg/kg, iv propranolol and measured after 20 mins post ligand dose by electron microscopy
Felis catus [19] = assay: Effect on peroxidase reaction product in r-ER, Golgi complex, and secretory granules in acinar cells of cat at 0.3 mg/kg, iv dosed 10 mins before dosing of 7.3 mg/kg, iv propranolol and measured after 20 mins post ligand dose
Felis catus [20] = assay: Increase in granule content containing the peroxidase reaction product discharged into acinar lumen in cat at 0.3 mg/kg, iv after 20 mins
Felis catus [21] = assay: Reduction in secretion rate of electron dense peroxidase-positive granules in cat at 0.3 mg/kg, iv after 60 mins

Measured: Activity

CC(C)NCC(O)COc1cccc2ccccc12 (stereo unspecified)
inactive: Felis catus [1] | Felis catus [2] | Felis catus [4] | Felis catus [5] | Felis catus [9] | Felis catus [11] | Felis catus [12] | Felis catus [13]
active: Felis catus [3] | Felis catus [6] | Felis catus [7] | Felis catus [8] | Felis catus [10]

CC(C)NCC(O)c1ccc(O)c(O)c1 (stereo unspecified)
active: Felis catus [20] | Felis catus [21]
inactive: Felis catus [14] | Felis catus [15] | Felis catus [16] | Felis catus [17] | Felis catus [18] | Felis catus [19]
